Data published in patent US4914215A, “Aminopropyl thiophene compounds” (The United States of America as represented by the United …, priority 1989, dated 1990).

Key:
brain [1] = experiment: Tissue distribution of 5-halothiophene-2-isopropylamines in Fisher rats; type: in vivo; conditions: in words
Excerpt: 5-HALOTHIOPHENE-2-ISOPROPYLAMINES
Mean Brian. % Dose/gm (Mean Brain:Blood)

brain [2] = conditions: five minutes after administration; versus HIPDM; cited from earlier work
lungs = conditions: versus HIPDM; cited from earlier work

| Structure (SMILES) | brain retention (brain [1]) | brain uptake (brain [1]) | brain-to-blood ratios (brain [1]) | amount of activity in the brain relative to HIPDM (brain [2]) | clearance of the lungs relative to HIPDM (lungs) |
| --- | --- | --- | --- | --- | --- |
| CC(N)Cc1ccc([82Br])s1 (stereo not shown) [Br-82, 2-(2-aminopropyl)-5-bromothiophene] | good brain uptake and retention | good brain uptake |  |  |  |
| CC(N)Cc1ccc([125I])s1 (stereo not shown) [Compound I-125, 2-(2-aminopropyl)-5-radiohalothiophene] | good retention | high brain uptake | high brain-to-blood ratios |  |  |
| CC(C)NC(C)Cc1ccc(I)cc1 (stereo not shown) [IMP, N-isopropyl-p-iodoamphetamine] |  |  |  | almost twice | faster |
